# Laboratory results published in US20180125834A1, “METHODS OF TREATING BACTERIAL INFECTIONS AND FUNGAL INFECTIONS USING ENANTIOPURE DEUTERIUM-ENRICHED PIOGLITAZONE” (DeuteRx, LLC, priority 2015, published 2018).
# Tests used:
# [1] = In vitro stability (enantiomerization, D/H exchange) in human plasma at 37° C.; assay type: in vitro ADME; settings: up to 32 h
# Procedure: (§1) The plasma samples were incubated at 37° C. in duplicate (anticoagulant: K3EDTA). […] Samples were placed at −80° C. until the study was complete. […] The vortexed samples were centrifuged and 50 μL of supernatant was dispensed in a 96-well plate.
# (§2) The deuterium in both enantiomers, d-S and d-R, can be lost by D/H exchange to give both protonated enantiomers, h-S and h-R with rate constants kDRR, kDRS, kDSR, and kDSS. At the same time, the protonated enantiomers h-S and h-R can exchange with enantiomerization rate constants kRS and kSR. All four compounds can also degrade with potentially different degradation rate constants kdSd, kdRd, khSd, and khRd.
# (§3) Human and mouse plasma data were analyzed independently. […] Data in each species was analyzed using a stepwise approach.
# (§4) The step between calculated time points was minimized in order to minimize the local error (proportional to the square of the step size) and the global error (proportional to the step size).
# [2] = In vitro stability (enantiomerization, D/H exchange) in C57BL/6 mouse plasma at 37° C.; assay type: in vitro ADME; settings: up to 32 h
# Procedure: as §1, §2, §3, §4
# [3] = test system: C2C12 cells; settings: 30 μM for 15, 30, or 90 min; 10 mM sodium pyruvate
# Procedure: On the day before the assay, C2C12 cells were subcultured in XF96 microplates at a density of 20,000 cells per well. After overnight incubation (37° C., 5% CO2), the cells were washed 3 times with assay medium (Seahorse medium (Seahorse Bioscience, North Billerica, Mass.) containing 10 mM sodium pyruvate, pH 7.4). […] Incubation times of 15, 30, or 90 min were used prior to measurement of maximal respiration, i.e., until addition of FCCP. […] Maximal respiration as oxygen consumption rates (pmoles O2/min) was measured for each compound, at each concentration, and each time point in three separate experiments.
# [4] = target: T1, human recombinant monoamine oxidase B (Homo sapiens, UniProt P27338); assay: Monoamine oxidase B (MAO-B) inhibition, luminescence assay; assay type: biochemical
# T1 sequence (P27338 1-520): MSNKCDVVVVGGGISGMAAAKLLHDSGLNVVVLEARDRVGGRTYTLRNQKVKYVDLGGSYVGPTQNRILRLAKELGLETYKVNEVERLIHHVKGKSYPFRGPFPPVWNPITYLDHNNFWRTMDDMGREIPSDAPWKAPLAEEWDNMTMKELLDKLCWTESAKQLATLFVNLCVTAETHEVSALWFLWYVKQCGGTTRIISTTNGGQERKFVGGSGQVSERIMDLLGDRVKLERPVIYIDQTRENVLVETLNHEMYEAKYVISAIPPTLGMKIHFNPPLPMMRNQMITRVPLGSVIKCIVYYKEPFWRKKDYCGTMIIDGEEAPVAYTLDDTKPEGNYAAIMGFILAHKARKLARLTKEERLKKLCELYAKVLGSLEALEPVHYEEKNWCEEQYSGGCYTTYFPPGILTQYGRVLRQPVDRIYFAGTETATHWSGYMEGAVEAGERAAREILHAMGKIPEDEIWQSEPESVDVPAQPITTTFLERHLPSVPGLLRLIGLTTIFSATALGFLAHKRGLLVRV
# Procedure: The mixtures were incubated at 22° C. for 5 min. Substrate (D-luciferin derivative) was added, and then the mixture was incubated at 37° C. for 60 min. The reaction was stopped by addition of the detection reagent containing luciferase. Luminescence was read after standing for 60 min at room temperature.
# Results were expressed as a percentage of the luminescence of the control (enzyme+substrate). IC50 values were obtained by fitting experimental data (mean % luminescence as function of concentration) to the Hill equation with variable slope using non-linear regression analysis.
# [5] = In vitro plasma stability, half-life of deuterated vs. protonated enantiomers (plasma species not given); assay type: in vitro ADME; settings: 37° C., t1/2=ln(2)/k from fitted rate constants
# Procedure: as §1, §2, §3, §4
SMILES,degradation (sum of peak areas vs. incubation time) [1],degradation (sum of peak areas vs. incubation time) [2],maximal respiration as oxygen consumption rate (OCR) vs. vehicle-treated cells [3],difference in inhibition efficacy between d-R-pio and d-S-pio [4],half-life of deuterated enantiomer vs. corresponding protonated enantiomer [5]
"CCc1ccc(CCOc2ccc(C[C@@H]3SC(=O)NC3=O)cc2)nc1 [h-S-pio, (S)-5-({p-[2-(5-ethyl-2-pyridyl)ethoxy]phenyl}methyl)-1,3-thiazolidine-2,4-dione, reference compound]",negligible,negligible,–,–,–
"CCc1ccc(CCOc2ccc(C[C@H]3SC(=O)NC3=O)cc2)nc1 [h-R-pio, (R)-5-({p-[2-(5-ethyl-2-pyridyl)ethoxy]phenyl}methyl)-1,3-thiazolidine-2,4-dione, reference compound]",negligible,negligible,–,–,–
"CCc1ccc(CCOc2ccc(CC3SC(=O)NC3=O)cc2)nc1 (racemic) [h-rac-pio, rac-5-({p-[2-(5-Ethyl-2-pyridyl)ethoxy]phenyl}methyl)-1,3-thiazolidine-2,4-dione, reference compound]",–,–,inhibited maximal respiration,–,–
"[2H][C@]1(Cc2ccc(OCCc3ccc(CC)cn3)cc2)SC(=O)NC1=O [d-R-pio, (R)-5-({p-[2-(5-Ethyl-2-pyridyl)ethoxy]phenyl}methyl)-(5-^2H)-1,3-thiazolidine-2,4-dione]",negligible,negligible,inhibited maximal respiration,greater than 5 fold,approximately two-fold
"[2H][C@@]1(Cc2ccc(OCCc3ccc(CC)cn3)cc2)SC(=O)NC1=O [d-S-pio, (S)-5-({p-[2-(5-Ethyl-2-pyridyl)ethoxy]phenyl}methyl)-(5-^2H)-1,3-thiazolidine-2,4-dione]",negligible,negligible,no significant measurable effect,–,approximately the same as the half-life for h-S-pio
